Measurements taken from patent US7851637B2, “Compounds and methods for inhibiting the interaction of BCL proteins with binding partners” (Infinity Pharmaceuticals, Inc., priority 2004, dated 2010).
Like-named read-outs stand apart in the source and are kept apart here.

Experiments:
[1] = system: RL Human Follicular Lymphoma Cell Line; assay: Alamar blue cytotoxicity assay in RL cells; assay type: cell-based; conditions: 72 h incubation, read-out: Bcl RL Alamar Blue IC50
Outline: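 Compounds tested at 29 uM to 0.013 uM final (0.3% DMSO) on 30,000 RL cells per well. After 72 h at 37 C, 5% CO2, viability read with Alamar blue.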

Bcl-xL = Bcl-xL (Homo sapiens, UniProt Q07817); assay: Bcl-xL binding affinity analysis (fluorescence polarization binding assay); design: scale not given here
Chain of Bcl-xL (Q07817 whole entry): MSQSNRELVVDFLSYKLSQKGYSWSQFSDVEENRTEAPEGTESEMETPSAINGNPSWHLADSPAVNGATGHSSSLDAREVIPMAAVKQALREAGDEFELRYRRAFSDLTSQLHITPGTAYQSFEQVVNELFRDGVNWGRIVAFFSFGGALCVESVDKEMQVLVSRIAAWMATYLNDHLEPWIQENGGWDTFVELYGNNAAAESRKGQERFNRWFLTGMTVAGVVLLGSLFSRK
Outline: (§1)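 Compounds were tested in vitro for association with the purified target, with binding quantified from the change in fluorescence polarization.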

Bcl-2 = Bcl-2 (Homo sapiens, UniProt P10415); assay: Bcl-2 binding affinity analysis (fluorescence polarization binding assay)
Chain of Bcl-2 (P10415 whole entry): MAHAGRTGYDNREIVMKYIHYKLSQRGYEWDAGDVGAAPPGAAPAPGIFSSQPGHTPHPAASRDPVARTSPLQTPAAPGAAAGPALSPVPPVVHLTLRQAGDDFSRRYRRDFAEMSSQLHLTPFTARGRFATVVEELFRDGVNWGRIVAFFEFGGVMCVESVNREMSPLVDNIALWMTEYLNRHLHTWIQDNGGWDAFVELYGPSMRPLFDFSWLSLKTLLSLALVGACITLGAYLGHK
Outline: as §1

[2] = system: Human Pancreatic Cancer Cell Line Panc1; assay: Cell death assay (propidium iodide/Hoechst) in Panc1 cells with or without camptothecin; assay type: cell-based; conditions: 72 hours, % cell death by propidium iodide/Hoechst
Outline: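 Panc1 cells, 10,000/well, exposed 72 h at 37 C to compound (29 uM to 0.13 uM, 0.3% DMSO) with or without 3 uM camptothecin. Propidium iodide and Hoechst staining imaged by fluorescence microscopy; % cell death = PI-stained/Hoechst-stained cells × 100.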

[3] = Homo sapiens, PANC-1, without camptothecin, read-out: Panc1 − Cpt IC50
[4] = with 3 uM Camptothecin, read-out: Panc1 + Cpt IC50

Row | SMILES | Bcl-XL binding affinity Ki (Bcl-xL) | Ki (Bcl-2) [µM] | IC50 ([1]; Homo sapiens) [µM] | IC50 [2, 3] [µM] | IC50 [2, 4] [µM] | IC50 ([2]; without camptothecin, read-out: Panc1 − Cpt IC50) [µM] | IC50 [1] [µM]
1 | CC(O)C1C(CO)ON(Cc2cccc(CN(CC(=O)N(C)C)Cc3ccccc3)c2)C1C(=O)NC1CC2CC(C1C)C2(C)C (stereo not shown) [Compound 471] | ♯ | < 0.8 | > 5 | > 2.5 | > 2.5 | – | –
2 | CC(O)C1C(CO)ON(Cc2cccc(CN(CCN(C)C)Cc3cccc(Br)c3)c2)C1C(=O)NC1CC2CC(C1C)C2(C)C (stereo not shown) [Compound 366] | ♯ | < 0.8 | 2 to 5 | 1.8 to 2.5 | 1.8 to 2.5 | – | –
3 | COc1c(CN2O[C@@H](CO)[C@@H]([C@H](C)O)[C@H]2C(=O)N[C@H]2C[C@H]3C[C@@H]([C@@H]2C)C3(C)C)cccc1-c1cccc(C(=O)N[C@H](CN(C)C)C2CCCCC2)c1 [Compound 480] | ♯ | < 0.8 | 2 to 5 | > 2.5 | 1.3 to 1.8 | – | –
4 | CC(O)C1C(CO)ON(Cc2cccc(CN(CCN(C)C)Cc3cccnc3)c2)C1C(=O)NC1CC2CC(C1C)C2(C)C (stereo not shown) [Compound 393] | ♯ | < 0.8 | > 5 | > 2.5 | > 2.5 | – | –
5 | CCN(CC)CCN(Cc1ccccc1)Cc1cccc(CN2OC(CO)C(C(C)O)C2C(=O)NC2CC3CC(C2C)C3(C)C)c1 (stereo not shown) [Compound 428] | ♯ | < 0.8 | > 5 | > 2.5 | > 2.5 | – | –
6 | CC(O)C1C(CO)ON(Cc2cccc(CN(CCN(C)C)Cc3ccc([N+](=O)[O-])cc3)c2)C1C(=O)NC1CC2CC(C1C)C2(C)C (stereo not shown) [Compound 396] | ♯ | < 0.8 | > 5 | > 2.5 | > 2.5 | – | –
7 | CC(C)CC(CN(C)C)N(Cc1ccccc1)Cc1cccc(CN2OC(CO)C(C(C)O)C2C(=O)NC2CC3CC(C2C)C3(C)C)c1 (stereo not shown) [Compound 311] | ♯ | < 0.8 | – | > 2.5 | 1.8 to 2.5 | – | 2 to 5
8 | COc1ccccc1CN(Cc1cccc(CN2OC(CO)C(C(C)O)C2C(=O)NC2CC3CC(C2C)C3(C)C)c1)C(CC(C)C)CN(C)C (stereo not shown) [Compound 301] | ♯ | < 0.8 | < 2 | > 2.5 | > 2.5 | – | –
9 | CC(O)C1C(CO)ON(Cc2cccc(CN(CCN(C)C)CC3CC3)c2)C1C(=O)NC1CC2CC(C1C)C2(C)C (stereo not shown) [Compound 390] | ♯ | < 0.8 | > 5 | > 2.5 | > 2.5 | – | –
10 | CC(O)C1C(CO)ON(Cc2cccc(CN(CCN(C)C)CC3=CCCCC3)c2)C1C(=O)NC1CC2CC(C1C)C2(C)C (stereo not shown) [Compound 354] | ♯ | < 0.8 | < 2 | 1.8 to 2.5 | 1.3 to 1.8 | – | –
11 | CC(O)C1C(CO)ON(Cc2cccc(CN(CCN(C)C)Cc3nccs3)c2)C1C(=O)NC1CC2CC(C1C)C2(C)C (stereo not shown) [Compound 395] | ♯ | < 0.8 | > 5 | > 2.5 | > 2.5 | – | –
12 | CC(C)C[C@@H](CN(C)C)N(Cc1cccc(CN2O[C@@H](CO)C([C@H](C)O)[C@H]2C(=O)N[C@H]2C[C@H]3C[C@@H]([C@@H]2C)C3(C)C)c1)Cc1ccccc1O (stereo partly shown) [Compound 300] | ♯ | < 0.8 | < 2 | > 2.5 | 1.8 to 2.5 | – | –
13 | COc1c(CN2O[C@@H](CO)[C@@H]([C@H](C)O)[C@H]2C(=O)N[C@H]2C[C@H]3C[C@@H]([C@@H]2C)C3(C)C)cccc1-c1cccc(C(=O)N[C@@H](CN(C)C)C(C)C)c1 [Compound 484] | ♯ | < 0.8 | 2 to 5 | > 2.5 | > 2.5 | – | –
14 | CC(O)C1C(CO)ON(Cc2cccc(CN3Cc4ccccc4C3CN(C)C)c2)C1C(=O)NC1CC2CC(C1C)C2(C)C (stereo not shown) [Compound 470] | ♯ | < 0.8 | > 5 | > 2.5 | > 2.5 | – | –

Continued, in another order:

Row | Bcl-XL binding affinity Ki (Bcl-xL) | Ki (Bcl-2) [µM] | SMILES | IC50 ([1]; Homo sapiens) [µM] | IC50 [2, 3] [µM] | IC50 [2, 4] [µM] | IC50 ([2]; without camptothecin, read-out: Panc1 − Cpt IC50) [µM] | IC50 [1] [µM]
15 | ♯ | < 0.8 | C[C@@H]1[C@@H](NC(=O)[C@@H]2C([C@H](C)O)[C@H](CO)ON2Cc2cccc(CN(CCN(C)C)Cc3ccc(Br)cc3)c2)C[C@H]2C[C@@H]1C2(C)C (stereo partly shown) [Compound 360] | > 5 | > 2.5 | > 2.5 | – | –
16 | ♯ | < 0.8 | CC(C)CC(CN(C)C)N(Cc1cccc(CN2OC(CO)C(C(C)O)C2C(=O)NC2CC3CC(C2C)C3(C)C)c1)Cc1ccccc1C(F)(F)F (stereo not shown) [Compound 321] | < 2 | < 1.3 | < 1.3 | – | –
17 | ♯ | < 0.8 | Cc1cccc(C)c1CN(Cc1cccc(CN2OC(CO)C(C(C)O)C2C(=O)NC2CC3CC(C2C)C3(C)C)c1)C(CC(C)C)CN(C)C (stereo not shown) [Compound 325] | < 2 | < 1.3 | < 1.3 | – | –
18 | ♯ | < 0.8 | C[C@@H]1[C@@H](NC(=O)[C@@H]2C([C@H](C)O)[C@H](CO)ON2Cc2cccc(CN(CCN(C)C)Cc3ccccc3Cl)c2)C[C@H]2C[C@@H]1C2(C)C (stereo partly shown) [Compound 346] | 2 to 5 | > 2.5 | > 2.5 | – | –
19 | ♯ | < 0.8 | CC(O)C1C(CO)ON(Cc2cccc(CN(Cc3ccccc3)C(C)CN(C)C)c2)C1C(=O)NC1CC2CC(C1C)C2(C)C (stereo not shown) [Compound 431] | > 5 | > 2.5 | > 2.5 | – | –
20 | ♯ | < 0.8 | CC(O)C1C(CO)ON(Cc2cccc(CN(CCN(C)C)Cc3cccc(-c4ccccc4)c3)c2)C1C(=O)NC1CC2CC(C1C)C2(C)C (stereo not shown) [Compound 402] | < 2 | > 2.5 | > 2.5 | – | –
21 | ♯ | < 0.8 | CC(O)C1C(CO)ON(Cc2cccc(CN(CCN(C)C)Cc3ccoc3)c2)C1C(=O)NC1CC2CC(C1C)C2(C)C (stereo not shown) [Compound 392] | > 5 | > 2.5 | > 2.5 | – | –
22 | ♯ | < 0.8 | CC(O)C1C(CO)ON(Cc2cccc(C(=O)NC(CCc3ccccc3)CN(C)C)c2)C1C(=O)NC1CC2CC(C1C)C2(C)C (stereo not shown) [Compound 498] | > 5 | > 2.5 | > 2.5 | – | –
23 | ♯ | < 0.8 | CC(O)C1C(CO)ON(Cc2cccc(CN(C)C(CC3CCCCC3)CN(C)C)c2)C1C(=O)NC1CC2CC(C1C)C2(C)C (stereo not shown) [Compound 442] | 2 to 5 | > 2.5 | > 2.5 | – | –
24 | ♯ | < 0.8 | COc1c(CN2O[C@@H](CO)[C@@H]([C@H](C)O)[C@H]2C(=O)N[C@H]2C[C@H]3C[C@@H]([C@@H]2C)C3(C)C)cccc1-c1cccc(C(=O)N[C@H](Cc2ccccc2)CN(C)C)c1 [Compound 486] | 2 to 5 | > 2.5 | > 2.5 | – | –
25 | ♯ | < 0.8 | CC(C)CC(CN(C)C)N(Cc1ccccc1)Cc1cccc(CN2OC(CO)C(C(C)O)C2C(=O)NC2CC3CC(C2C)C3(C)C)c1 (stereo not shown) [Compound 435] | 2 to 5 | – | > 2.5 | > 2.5 | –
26 | ♯ | < 0.8 | CC(O)C1C(CO)ON(Cc2cccc(CN(CCN(C)C)Cc3ccc4ccccc4c3)c2)C1C(=O)NC1CC2CC(C1C)C2(C)C (stereo not shown) [Compound 375] | > 5 | > 2.5 | > 2.5 | – | –
27 | ♯ | < 0.8 | CC(C)CC(CN(C)C)N(Cc1cccc(CN2OC(CO)C(C(C)O)C2C(=O)NC2CC3CC(C2C)C3(C)C)c1)Cc1ccccc1OC(F)(F)F (stereo not shown) [Compound 320] | < 2 | > 2.5 | 1.8 to 2.5 | – | –
28 | ♯ | < 0.8 | Cc1cccc(CN(CCN(C)C)Cc2cccc(CN3OC(CO)C(C(C)O)C3C(=O)NC3CC4CC(C3C)C4(C)C)c2)c1 (stereo not shown) [Compound 399] | 2 to 5 | > 2.5 | > 2.5 | – | –
29 | ♯ | < 0.8 | CC(C)CC(CN(C)C)NC(=O)c1cccc(CN2OC(CO)C(C(C)O)C2C(=O)NC2CC3CC(C2C)C3(C)C)c1 (stereo not shown) [Compound 505] | > 5 | > 2.5 | > 2.5 | – | –
30 | ♯ | < 0.8 | CC(O)C1C(CO)ON(Cc2cccc(CN(CCN(C)C)Cc3c(F)cccc3C(F)(F)F)c2)C1C(=O)NC1CC2CC(C1C)C2(C)C (stereo not shown) [Compound 412] | < 2 | > 2.5 | 1.3 to 1.8 | – | –
31 | ♯ | < 0.8 | CC(C)CC(CN(C)C)N(Cc1cccc(CN2OC(CO)C(C(C)O)C2C(=O)NC2CC3CC(C2C)C3(C)C)c1)Cc1ccccc1Cl (stereo not shown) [Compound 313] | < 2 | 1.3 to 1.8 | 1.3 to 1.8 | – | –
32 | ♯ | < 0.8 | CC(O)C1C(CO)ON(Cc2cccc(CN(CCN3CCCC3)CC3CCCCC3)c2)C1C(=O)NC1CC2CC(C1C)C2(C)C (stereo not shown) [Compound 425] | < 2 | > 2.5 | > 2.5 | – | –
